{
  "source": "patent US6406843B1",
  "about": "“Poultry virus isolates and method” (University of Arkansas, priority 1998, dated 2002)",
  "type_in_all_cases": "in vivo, chicken",
  "key": {"[1]": {"system": "commercial broiler chickens", "assay": "AC-ELISA for IBDV in tissue homogenates of challenged broilers", "conditions": "broilers challenged 35 d post hatch", "experimental": "Broiler chickens were challenged or, day 35 post hatch (PH) with the USDA/STC IBDV prepared inoculum as described previously. Infectious bursal disease virus challenge was administered to each individual bird bilaterally to the eye (30 μl per eye) using an Eppendorf micropipettor (Brinkmann Inc., Westbury, N.Y.) and a sterile pipette tip (Costar Corp., Cambridge, Mass.).\n(§1) On days 4 and 11 post challenge 25 birds were necropsied from each virus challenge group and an additional 10 birds from the negative control. Each bird was weighed, bled, and euthanized by CO2 asphyxiation. All birds were necropsied at which time the bursa and proventriculus were scored for the presence of gross lesions. The bursa, spleen, and proventriculus were individually weighed and results recorded. Tissues from each of the birds were cut in half, with one half being placed into 10% buffered formalin, and the other half being placed into a sterile sampling bag (Fisher Scientific, Pittsburgh, Pa.). Tissues in sterile sampling bags were frozen at −20° C. for later analysis utilizing IBDV Antigen Capture ELISA(AC-ELISA), as described by Snyder et al (138).\nAC-ELISA test plates were prepared as described earlier in Section 1. Tissues were homogenized in AC-ELISA dilution buffer at a ratio of 1:5 tissue weight to volume. Homogenates were analyzed in duplicate against IBDV monoclonal B-29 AC-ELISA plates as described earlier in Section 1. Plates were read and means were calculated for the paired samples within each group and the homogenates were determined to be positive or negative based on the mean absorbance values as compared to the negative and positive controls on each plate."}, "[2]": {"system": "SPF white leghorn chickens", "assay": "Body weight after virus challenge", "from_the_text": "as §1, with “challenge 10” for “challenge 25”, “the bursa,” for “the bursa”\nAll data was entered into Microsoft™ Excel (Microsoft Corp., Redmond, Wash.). and were analyzed using SAS (10) (SAS Institute Inc., Cary, N.C.). Statistical significance was determined at the P<0.05 level using General Linear Models Procedure and least squared means for body weight, bursa: body weight ratios, spleen: body weight ratios, and proventriculus: body weight ratios. In addition, statistical differences were determined for means of the numerical index scores for gross lesions in the bursa and proventriculus."}, "[3]": {"system": "SPF white leghorn chickens", "assay": "TUNEL staining for apoptotic cells in bursa and proventriculus", "design": "key: + indicates the presence of specific fluorescence following TUNEL staining; ++: multiple “+'s” indicate visual intensity assessment; +++: multiple “+'s” indicate visual intensity assessment; ++++: multiple “+'s” indicate visual intensity assessment; −: scored as positive when present and negative when absent", "conditions": "4 days post challenge", "from_the_text": "Formalin fixed tissues from experiments described in Section 3 were utilized in this staining procedure. All tissues utilized were harvested at 4 days post challenge with a 1× concentration of USDA/STC IBDV or Variant E/11084 IBDV. Tissues from specific birds were selected following an initial screening with hematoxylin and eosin stained sections. Tissue preparation and sectioning were as follows. Tissues were placed in 10% buffered formalin at necropsy. Twenty-four hours later tissues were removed, manually trimmed to a thickness of ⅛ inch and placed in tissue cassettes. Tissues were dehydrated through graded alcohols and cleared in two changes of toluene. Tissues were then infiltrated with paraffin over a 16 hour period using an autoprocessor. Following paraffin infiltration, tissues were positioned in paraffin blocks and trimmed to expose a uniform tissue face. Prepared tissue blocks were stored at −20° C. until ready to be sectioned. Sections were cut at a thickness of 5 μm and floated on a water bath containing 5% gelatin to facilitate attachment (55). […]\nTissue sections were prepared as described earlier and removed from storage at 4° C. […] Slides were stored at 4° C. overnight before viewing for the presence of fluorescence. Slides were viewed using an Olympus BX50 microscope equipped with a Olympus PM-C35X camera and Omega dye specific fluorescence filters (DAPI 385-395) (FITC 475-497). […]"}, "[4]": {"system": "SPF white leghorn chickens", "assay": "Antigen Capture ELISA (AC-ELISA) for IBDV in tissue homogenates of challenged birds", "conditions": "challenge at 28 d post hatch ± REO S-1133 and/or copper sulfate 1 lb/ton", "from_the_text": "On days 4 and 11 post challenge 10 birds were necropsied from each virus challenge group as well as an additional 10 birds from the negative control. Each bird was weighed, bled, and euthanized with CO2 gas. All bursae and proventriculi were scored for the presence of gross lesions during necropsy. The bursa, spleen, and proventriculus were individually weighed and weights recorded. Tissues from each of the first five birds were cut in half, with one half being placed into 10% buffered formalin, and the other half being placed into a sterile sampling bag (Fisher Scientific, Pittsburgh, Pa.). All tissues were pooled by organ and experimental treatment group into the buffered formalin and into the sampling bags. Tissues from the remaining five birds were placed only in the sterile sampling bags. Tissues in sterile sampling bags were frozen at −20° C. for later analysis utilizing Antigen Capture ELISA (AC-ELISA), as described by Snyder et al (11).\nMonoclonal antibody B-29 (University of Maryland, College Park, Md., Intervet Inc. , Millsboro, Del.) was diluted 1:10 in ice cold sterile distilled water. The solution was then acidified by the addition of 0.4 N sulfuric acid. The acidified monoclonal solution was incubated in an ice bath for one hour […]. Following incubation the acidified monoclonal antibody was diluted in 200 ml of coating buffer bringing the final dilution of monoclonal antibody to 1:10,000. ELISA optimized 96 well microtiter plates Corning #25805-96 (Corning Glass Works, Corning N.Y. 14831) were coated with 100 μl per well of a 1:10,000 dilution of monoclonal antibody B-29 (University of Maryland, College Park, Md.; Intervet, Inc., Millsboro Del.) ascitic fluid in coating buffer (Appendix). Plates were covered with individual plate sealers (Dynatech, Chantilly Va.), and incubated for 2 hours at 37° C. and then overnight at 4° C. Coated plates were washed three times with washing buffer (Appendix), with residual fluid being tapped out. Plates were allowed to air dry at room temperature and were then covered with individual plate sealers and stored at −20° C. until needed.\nInfectious bursal disease virus suspect tissues were homogenized in AC-ELISA dilution buffer (Appendix) at a ratio of 1:5 or approximately 20% tissue weight to volume. Homogenization was accomplished by use of a rubber mallet, followed by the addition of the dilution buffer. One hundred fifty μl of each bursal homogenate and 300 μl of each proventricular homogenate were placed in duplicate in a 96 well round bottom plate. The concentration of the bursa tissue was adjusted by addition of 150 μl of AC-ELISA dilution buffer. There was no additional dilution to the proventriculus tissue homogenates. […]"}, "[5]": {"system": "commercial broiler chickens", "assay": "Microscopic lesions in bursa and proventriculus of broilers", "conditions": "broilers challenged 35 d post hatch", "from_the_text": "(§2) Tissues were placed in buffered formalin at necropsy, and processed twenty-four hours later by the method described in Section 1 (55). Tissues were examined for the presence of histopathological lesions induced by IBDV infection. Lesions in the lamina propria of the proventriculus were predominantly pleomorphism of the lymphoid cells in the mucosa along with lymphocyte depletion. Lesions in the bursa were predominantly lymphoid depletion with accompanied follicle degeneration.\n(§3) Tissues were given a numerical index score based on the presence or absence as well as the intensity of the lesions present. The score ranged from a low of “0” which indicates no lesions or pathology observed to a high of “4” which indicates extensive tissue damage."}, "[6]": {"system": "SPF white leghorn chickens", "assay": "Microscopic (histopathological) lesions in bursa and proventriculus", "conditions": "for Microscopic lesions in the bursa, samples with lesions/screened / Microscopic lesions in the proventriculus, samples with lesions/screened: challenge at 28 d post hatch ± REO S-1133 and/or copper sulfate", "from_the_text": "Tissues were placed in 10% buffered formalin at necropsy. Twenty-four hours later tissues were removed and manually trimmed to a thickness of ⅛ inch and placed in tissue cassettes. Tissues were dehydrated through graded alcohols, and cleared in two changes of toluene. Tissues were then infiltrated with paraffin over a 16-hour period using an autoprocessor. Following paraffin infiltration, tissues were positioned in paraffin blocks and trimmed to expose a uniform tissue face. Prepared tissue blocks were stored at −20° C. until ready to be sectioned. Sections were cut at a thickness of 5μm and floated on a water bath containing 5% gelatin before they were placed on standard 1×3 inch slides. Tissue sections were then stained using the standard method of Harris (41), for hematoxylin and eosin.\nTissues were examined microscopically for the presence of histopathological lesions induced by IBDV infection. […] Lesions in the bursa were predominantly lymphoid depletion with accompanied follicle degeneration Tissues were given a numerical index score based on the presence or absence of lesions as well as the intensity of the lesions. The scores ranged from a low of “0” which indicates no lesions or pathology observed to a high of “4” which indicates extensive tissue damage.\nas §2, §3\nTissues were placed in buffered formalin at necropsy, and processed twenty-four hours later by the method described in Section 1 (55). Tissues were examined for the presence of histopathological lesions induced by IBDV infection. Tissues were given a numerical index score based on the presence or absence as well as the intensity of the lesions present. The score ranged from a low of “0” which indicates no lesions or pathology observed to a high of “4” which indicates extensive tissue damage.\nTissues were placed in buffered formalin at necropsy, and processed twenty-four hours later by the method described in Section 1 (55). Tissues were examined for the presence of histopathological lesions induced by IBDV infection."}},
  "data": [
    {"smiles": "O=S(=O)([O-])[O-].[Cu+2]", "note": "[NC + CS, copper sulfate]", "values": [
      {"measurement": "AC-ELISA bursal homogenates, positive/tested", "setting": "[1]; day 4 post challenge", "result": "0/10"},
      {"measurement": "AC-ELISA proventricular homogenates, positive/tested", "setting": "[1]; day 4 post challenge", "result": "0/10"},
      {"measurement": "AC-ELISA bursal homogenates, positive/tested", "setting": "[1]; day 11 post challenge", "result": "0/10"},
      {"measurement": "AC-ELISA proventricular homogenates, positive/tested", "setting": "[1]; day 11 post challenge", "result": "0/10"},
      {"measurement": "Body weight gain vs negative control", "setting": "[2]; between day 4 and day 11 post challenge", "result": "significantly lower"},
      {"measurement": "Day 11 body weight means vs negative control", "setting": "[2]; day 11 post challenge", "result": "significantly different"},
      {"measurement": "TUNEL staining, bursa", "setting": "[3]", "result": "−"},
      {"measurement": "TUNEL staining, proventriculus", "setting": "[3]", "result": "−"},
      {"measurement": "AC-ELISA bursal homogenates, positive/tested", "setting": "[4]; day 4 post challenge", "result": "0/10"},
      {"measurement": "AC-ELISA proventricular homogenates, positive/tested", "setting": "[4]; day 4 post challenge", "result": "0/10"},
      {"measurement": "AC-ELISA bursal homogenates, positive/tested", "setting": "[4]; day 11 post challenge", "result": "0/10"},
      {"measurement": "AC-ELISA proventricular homogenates, positive/tested", "setting": "[4]; day 11 post challenge", "result": "0/10"},
      {"measurement": "Microscopic lesions in the bursa", "setting": "[5]; day 4 post challenge", "result": "0/10"},
      {"measurement": "Microscopic lesions in the proventriculus", "setting": "[5]; day 4 post challenge", "result": "0/10"},
      {"measurement": "Microscopic lesions in the bursa", "setting": "[5]; day 11 post challenge", "result": "9/10"},
      {"measurement": "Microscopic lesions in the proventriculus", "setting": "[5]; day 11 post challenge", "result": "0/10"},
      {"measurement": "Microscopic lesions in the bursa, samples with lesions/screened", "setting": "[6]; day 4 post challenge", "result": "0/10"},
      {"measurement": "Microscopic lesions in the proventriculus, samples with lesions/screened", "setting": "[6]; day 4 post challenge", "result": "0/10"},
      {"measurement": "Microscopic lesions in the bursa, samples with lesions/screened", "setting": "[6]; day 11 post challenge", "result": "0/10"},
      {"measurement": "Microscopic lesions in the proventriculus, samples with lesions/screened", "setting": "[6]; day 11 post challenge", "result": "0/10"},
      {"measurement": "Lesions in the proventriculus, gross or microscopic", "setting": "[6]; dietary copper levels used, without virus", "result": "no lesions in the proventriculus either gross or microscopic"}
    ]}
  ]
}
